Data reported in paper PMC6017406, “Synthesis and Physicochemical Evaluation of Entecavir-Fatty Acid Conjugates in Reducing Food Effect on Intestinal Absorption” (Molecules : A Journal of Synthetic Chemistry and Natural …, 2018).
≈ marks a conversion by molar mass, not a printed value. Where two headings read alike, the source gives them in different places.

Columns and labels:
[1] = Equilibrium solubility in biorelevant media; assay type: physicochemical; conditions: for solubility thermodynamic at 3 days: thermodynamic from solid, mean ± SD (n = 3)
Method: The equilibrium solubilities of lipidic prodrugs in biorelevant media such as FaSSGF, FeSSGF, FaSSIF, and FeSSIF [32, 33] were assessed. FaSSGF was prepared with 0.08 mM of sodium taurocholate, 0.02 mM of lecithin, and 34.2 mM of NaCl in 1000 mL of distilled water (pH 1.6). FaSSIF was prepared with 3 mM of sodium taurocholate, 0.2 mM of lecithin, 19.1 mM of malate, 68.62 mM of NaCl, and 34.8 mM of NaOH in 1000 mL of distilled water (pH 6.5, osmolality: 270 mOsm∙kg^−1). FeSSGF was prepared with 230.0 mM of NaCl, 17.1 mM of acetic acid, and 29.75 mM of sodium acetate, in 1000 mL of mixture of milk (full fat 3.5%) and distilled water (pH 5.0, osmolality: 400 mOsm∙kg^−1). FeSSIF was prepared with 10 mM of sodium taurocholate, 2 mM of lecithin, 5 mM of glyceryl monooleate, 0.8 mM of sodium oleate, 55.0 mM of malate, 125.5 mM of NaCl, and 81.6 mM of NaOH in 1000 mL of distilled water (pH 5.8, osmolality: 390 mOsm∙kg^−1).
An excess amount of drug (500 mg) was added to biorelevant media in a scintillation vial. Drug suspensions were sonicated for 30 min and then shaken at 37 °C for 3 days using a shaking incubator. Samples were then centrifuged at 13,000 rpm for 10 min and the supernatant was appropriately diluted with mobile phase. The concentration of EV-FA in the medium was analyzed using HPLC as described above.

[2] = Hydrolysis in simulated gastric fluid (pH 1.2); assay type: physicochemical; conditions: simulated gastric fluid pH 1.2, 37 °C, after 12 h, 20 μg/mL
Method: To estimate the chemical stability of these synthesized ester prodrugs in the stomach, their hydrolysis behavior was evaluated in simulated gastric fluid (pH 1.2). Each compound (10 mg) was dissolved in ethanol (10 mL) and then serially diluted with simulated gastric fluid at a drug concentration of 20 μg/mL. […]

[3] = design: method as in PMID 14498759; conditions: humans; cited from earlier work
[4] = design: method as in PMID 27503646; conditions: cited from earlier work
[5] = In vitro dissolution test in biorelevant media (USP 29 paddle method); assay type: physicochemical
Method: The United States Pharmacopeia 29 paddle method was used to assess the release profile of EV-C12 powder using a VK 7000 dissolution tester (Varian Medical Industries, Palo Alto, CA, USA). The EV-FA powder equivalent to 0.5 mg of the parent compound was immersed in 900 mL of biorelevant media maintained at 37 °C ± 0.1 °C at a paddle speed of 50 rpm. At fixed time intervals, aliquots (about 4 mL) were drawn and centrifuged at 13,000 rpm for 10 min. An equal volume of the test medium pre-warmed at 37 °C ± 0.1 °C was used for immediate replacement. The supernatant was appropriately diluted with methanol and the drug concentration in the supernatant was assayed by HPLC, as described earlier.

[6] = design: method as in earlier work; conditions: oral 0.5 mg with high-fat meal (945 kcal, 54.6 g fat); cited from earlier work
[7] = fassgf or other biorelevant, FaSSGF pH 1.6, 37 °C, read-out: Equilibrium solubility FaSSGF
[8] = fassgf or other biorelevant, FeSSGF pH 5.0, 37 °C, read-out: Equilibrium solubility FeSSGF
[9] = FaSSIF pH 6.5, 37 °C, read-out: Equilibrium solubility FaSSIF
[10] = FeSSIF pH 5.8, 37 °C, read-out: Equilibrium solubility FeSSIF
[11] = all biorelevant media, 37 °C, 50 rpm

| solubility thermodynamic at 3 days [1, 7] [mg/mL] | solubility thermodynamic at 3 days [1, 8] [mg/mL] | solubility thermodynamic at 3 days [1, 9] [mg/mL] | solubility thermodynamic at 3 days [1, 10] [mg/mL] | Hydrolyzed percentage [2] [%] | SMILES | other results |
| --- | --- | --- | --- | --- | --- | --- |
| 0.00484 ± 0.0005 (≈ 12.9 µM) | 0.0249 ± 0.0014 (≈ 66.3 µM) | 0.00554 ± 0.0006 (≈ 14.8 µM) | 0.0252 ± 0.0023 (≈ 67.1 µM) | 59.1 | C=C1[C@H](COC(=O)CCCCC)[C@@H](O)C[C@@H]1n1cnc2c(=O)[nH]c(N)nc21 [EV-C6, (1R,3S,5S)-3-(2-Amino-6-oxo-1H-purin-9(6H)-yl)-5-hydroxy-2-methylenecyclopentyl)methyl hexanoate] |  |
| 0.00474 ± 0.0003 (≈ 11.7 µM) | 0.0382 ± 0.0015 (≈ 94.7 µM) | 0.00574 ± 0.0003 (≈ 14.2 µM) | 0.0367 ± 0.0012 (≈ 91 µM) | 46.2 | C=C1[C@H](COC(=O)CCCCCCC)[C@@H](O)C[C@@H]1n1cnc2c(=O)[nH]c(N)nc21 [EV-C8, ((1R,3S,5S)-3-(2-Amino-6-oxo-1H-purin-9(6H)-yl)-5-hydroxy-2-methylenecyclopentyl)methyl octanoate] |  |
| 0.00482 ± 0.0002 (≈ 10.5 µM) | 0.0766 ± 0.004 (≈ 167 µM) | 0.0065 ± 0.0002 (≈ 14.1 µM) | 0.0788 ± 0.0077 (≈ 171 µM) | 22.5 | C=C1[C@H](COC(=O)CCCCCCCCCCC)[C@@H](O)C[C@@H]1n1cnc2c(=O)[nH]c(N)nc21 [EV-C12, ((1R,3S,5S)-3-(2-Amino-6-oxo-1H-purin-9(6H)-yl)-5-hydroxy-2-methylenecyclopentyl)methyl dodecanoate] | Percent released within 30 min [5, 11]: more than 50%; Percent released/dissolved within 2 h [5, 11]: more than 90%; Concentration of EV in dissolution medium formed by hydrolysis of the lipidic compound ([5]; all media): less than 1%; Release rate constant (Hixon-Crowell cube-root model) ([5]; fourth medium listed (presumably FeSSIF), r^2 = 0.933): 0.053 mg^1/3/h; Release rate constant (Hixon-Crowell cube-root model) ([5]; second medium listed (presumably FaSSIF), r^2 = 0.914): 0.036 mg^1/3/h; Release rate constant (Hixon-Crowell cube-root model) ([5]; third medium listed (presumably FeSSGF), r^2 = 0.879): 0.048 mg^1/3/h |
| 0.00441 ± 0.0001 (≈ 10.2 µM) | 0.0619 ± 0.0032 (≈ 143 µM) | 0.00647 ± 0.0006 (≈ 15 µM) | 0.0666 ± 0.0044 (≈ 154 µM) | 44.4 | C=C1[C@H](COC(=O)CCCCCCCCC)[C@@H](O)C[C@@H]1n1cnc2c(=O)[nH]c(N)nc21 [EV-C10, ((1R,3S,5S)-3-(2-Amino-6-oxo-1H-purin-9(6H)-yl)-5-hydroxy-2-methylenecyclopentyl)methyl decanoate] |  |

More lines, now with the values behind:

| SMILES | solubility thermodynamic at 3 days [1, 7] [mg/mL] | solubility thermodynamic at 3 days [1, 8] [mg/mL] | solubility thermodynamic at 3 days [1, 9] [mg/mL] | solubility thermodynamic at 3 days [1, 10] [mg/mL] | Hydrolyzed percentage [2] [%] | other results |
| --- | --- | --- | --- | --- | --- | --- |
| Nc1ncnc2c1ncn2CCOCP(=O)(O)O [hydrophilic parent compound] |  |  |  |  |  | Oral bioavailability [3]: 12% |
| CC(C)(C)C(=O)OCOP(=O)(COCCn1cnc2c(N)ncnc21)OCOC(=O)C(C)(C)C [adefovir dipivoxil] |  |  |  |  |  | Oral bioavailability [3]: 59% |
| C=C1[C@H](CO)[C@@H](O)C[C@@H]1n1cnc2c(=O)nc(N)[nH]c21 [EV, 2-amino-9-[(1S,3R,4S)-4-hydroxy-3-(hydroxymethyl)-2-methylidenecyclopentyl]-3H-purin-6-one, reference compound] | 8.94 ± 0.092 (≈ 32200 µM) | 2.152 ± 0.013 (≈ 7760 µM) | 1.62 ± 0.023 (≈ 5860 µM) | 2.24 ± 0.052 (≈ 8080 µM) |  | solubility at 3 days ([1]; biorelevant media (FaSSGF, fassgf or other biorelevant, thermodynamic from solid), FaSSGF, FaSSIF, FeSSGF, FeSSIF, 37 °C, read-out: Aqueous solubility in all media tested): > 1.6 mg/mL; pKa [4]: 10.5; Solubility ([4]; distilled water at 25 °C): 2.4 mg/mL (≈ 8660 µM); logP ([4]; pH 4 to 10): −1.110; Time to complete release ([5]; all biorelevant media (FaSSGF, FaSSIF, FeSSGF, FeSSIF), 37 °C, 50 rpm): ≤ 15 min; Decrease in maximum drug concentration in plasma [6]: 44–46% |
